This note sets out measurements from PubChem BioAssay AID292 (DTP/NCI, 2004).

The test concerns B6C3F1 mice, ip Sarcoma M5076, median survival T/C. Description: NCI In Vivo Anticancer Drug Screen. Data for tumor model Sarcoma M5076 (intraperitoneal) in B6C3F1 mice. The settings on record: endpoint: median survival time, higher = longer survival. Summed up:
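Mice carrying the transplanted tumour received compound treatment. Survival was recorded, and each value is the treated-group measurement divided by that of the vehicle-dosed control group.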

[1] abbreviates: dose: 12.5 mg/kg/injection, schedule: Q04DX004 (ip), vehicle: saline with Tween-80.
[2] abbreviates: dose: 25.0 mg/kg/injection, schedule: Q04DX004 (ip), vehicle: saline with Tween-80.
Where [3] appears, read: dose: 50.0 mg/kg/injection, schedule: Q04DX004 (ip), vehicle: saline with Tween-80.
The mark [4] stands for this setting: dose: 100.0 mg/kg/injection, schedule: Q04DX004 (ip), vehicle: saline with Tween-80.
The mark [5] stands for this setting: dose: 50.0 mg/kg/injection, schedule: Q04DX004 (ip), vehicle: Klucel (hydroxypropylcellulose) (HPC).
The mark [6] stands for this setting: dose: 100.0 mg/kg/injection, schedule: Q04DX004 (ip), vehicle: Klucel (hydroxypropylcellulose) (HPC).
The mark [7] stands for this setting: dose: 200.0 mg/kg/injection, schedule: Q04DX004 (ip), vehicle: Klucel (hydroxypropylcellulose) (HPC).
Where [8] appears, read: dose: 37.5 mg/kg/injection, schedule: Q04DX004 (ip), vehicle: saline with Tween-80.
The mark [9] stands for this setting: dose: 37.5 mg/kg/injection, schedule: Q04DX004 (ip), vehicle: saline.
Where [10] appears, read: dose: 75.0 mg/kg/injection, schedule: Q04DX004 (ip), vehicle: saline with Tween-80.
Where [11] appears, read: dose: 75.0 mg/kg/injection, schedule: Q04DX004 (ip), vehicle: saline.
The mark [12] stands for this setting: dose: 150.0 mg/kg/injection, schedule: Q04DX004 (ip), vehicle: saline with Tween-80.
The mark [13] stands for this setting: dose: 150.0 mg/kg/injection, schedule: Q04DX004 (ip), vehicle: saline.
Setting [14] is: dose: 300.0 mg/kg/injection, schedule: Q04DX004 (ip), vehicle: saline.
[15] abbreviates: dose: 50.0 mg/kg/injection, schedule: Q04DX004 (ip), vehicle: suspension in saline.

“And” between values parts separate entries of the source, which are not always exact repeats. Equal values may be shown once. Inconclusive results and toxic doses are left out.

On to `CSc1c(N(C)C)c(=O)c1=S`, for which the T/C under setting [1] is 102 % of control, the T/C under setting [2] was 103 % of control, the T/C under setting [3] is 98 % of control and the T/C under setting [4] was 93 % of control.

Regarding `COc1ccc(NC(=O)C2C(=O)C(=O)N(c3ccc(OC)cc3OC)C2=O)c(OC)c1` (stereo not given), the T/C was 100 % of control under setting [5], 100 % of control under setting [6] and 97 % of control under setting [7].

For `O=C1C2CC(Cl)C(SSC3CC4C(=O)N(SC(Cl)(Cl)C(Cl)Cl)C(=O)C4CC3Cl)CC2C(=O)N1SC(Cl)(Cl)C(Cl)Cl` (stereo not given), the T/C under setting [1] is 97 % of control; the T/C under setting [2] is 95 % of control; the T/C under setting [3] is 98 % of control and 105 % of control; the T/C under setting [4] was 90 % of control and 97 % of control; the T/C (dose: 200.0 mg/kg/injection, schedule: Q04DX004 (ip), vehicle: saline with Tween-80) is 102 % of control and 117 % of control; the T/C (dose: 400.0 mg/kg/injection, schedule: Q04DX004 (ip), vehicle: saline with Tween-80) is 110 % of control. The T/C (dose: 800.0 mg/kg/injection, schedule: Q04DX004 (ip), vehicle: saline with Tween-80) was 109 % of control.

With `CCn1c2ccccc2c2cc(N=Nc3cc4ccccc4cc3O)ccc21`, under “dose: 43.75 mg/kg/injection, schedule: Q04DX004 (ip), vehicle: Klucel (hydroxypropylcellulose) (HPC)”, the T/C was 89 % of control.

`O=C(NNC(=S)NC1OC(CO)C(O)C(O)C1O)c1cccc(C(=O)NNC(=S)NC2OC(CO)C(O)C(O)C2O)n1` (stereo not given): the T/C under setting [8] is 97 % of control; the T/C under setting [9] is 101 % of control; the T/C under setting [10] was 98 % of control; the T/C under setting [11] is 96 % of control; the T/C under setting [12] was 98 % of control; the T/C under setting [13] is 101 % of control. Besides, the T/C is 99 % of control (dose: 300.0 mg/kg/injection, schedule: Q04DX004 (ip), vehicle: saline with Tween-80); 96 % of control under setting [14]; 98 % of control (dose: 600.0 mg/kg/injection, schedule: Q04DX004 (ip), vehicle: saline with Tween-80); 103 % of control (dose: 600.0 mg/kg/injection, schedule: Q04DX004 (ip), vehicle: saline).

Regarding `CCCCCCC1C(C#N)C(=O)NC(=O)C1C#N` (stereo not given), the T/C is, setting by setting: (dose: 40.63 mg/kg/injection, schedule: Q04DX004 (ip), vehicle: Klucel (hydroxypropylcellulose) (HPC)) 95 % of control; (dose: 81.25 mg/kg/injection, schedule: Q04DX004 (ip), vehicle: Klucel (hydroxypropylcellulose) (HPC)) 94 % of control; (dose: 162.5 mg/kg/injection, schedule: Q04DX004 (ip), vehicle: Klucel (hydroxypropylcellulose) (HPC)) 101 % of control; (dose: 325.0 mg/kg/injection, schedule: Q04DX004 (ip), vehicle: Klucel (hydroxypropylcellulose) (HPC)) 92 % of control; (dose: 650.0 mg/kg/injection, schedule: Q04DX004 (ip), vehicle: Klucel (hydroxypropylcellulose) (HPC)) 87 % of control.

As to `CN1COc2c(n(C)c(=O)[nH]c2=O)C1`, the T/C under setting [15] is 106 % of control; the T/C (dose: 100.0 mg/kg/injection, schedule: Q04DX004 (ip), vehicle: suspension in saline) was 106 % of control; the T/C (dose: 200.0 mg/kg/injection, schedule: Q04DX004 (ip), vehicle: suspension in saline) is 105 % of control; the T/C (dose: 400.0 mg/kg/injection, schedule: Q04DX004 (ip), vehicle: suspension in saline) was 106 % of control; the T/C (dose: 800.0 mg/kg/injection, schedule: Q04DX004 (ip), vehicle: suspension in saline) is 114 % of control.

For the compound `COc1ccccc1NC(=O)C1C(=O)C(=O)N(c2ccccc2OC)C1=O` (stereo not given), the T/C is, setting by setting: under setting [5], 105 % of control; under setting [6], 97 % of control; under setting [7], 96 % of control.

As to `CC1=CCCC2C1(C)CCC(C)C2(C)Cc1cc(O)ccc1O` (stereo not given), the T/C reads like this: (dose: 6.25 mg/kg/injection, schedule: Q04DX004 (ip), vehicle: Klucel (hydroxypropylcellulose) (HPC)) 103 % of control; (dose: 12.5 mg/kg/injection, schedule: Q04DX004 (ip), vehicle: Klucel (hydroxypropylcellulose) (HPC)) 99 % of control; (dose: 25.0 mg/kg/injection, schedule: Q04DX004 (ip), vehicle: Klucel (hydroxypropylcellulose) (HPC)) 101 % of control; under setting [5], 99 % of control; under setting [6], 102 % of control.

For the compound `Cc1ccc(-n2c(CSc3ccc(Cl)cc3)nnc2SCc2nc3ccccc3[nH]2)cc1`, the T/C is, setting by setting: (dose: 18.75 mg/kg/injection, schedule: Q04DX004 (ip), vehicle: saline with Tween-80) 95 % of control; under setting [8], 104 % of control; under setting [10], 100 % of control; under setting [12], 95 % of control.

Regarding `CN(CN1C(=O)CCC1=O)CN1C(=O)CCC1=O`, the T/C by setting is: (dose: 50.0 mg/kg/injection, schedule: Q04DX004 (ip), vehicle: saline) 92 % of control; (dose: 100.0 mg/kg/injection, schedule: Q04DX004 (ip), vehicle: saline) 100 % of control; (dose: 200.0 mg/kg/injection, schedule: Q04DX004 (ip), vehicle: saline) 96 % of control; (dose: 400.0 mg/kg/injection, schedule: Q04DX004 (ip), vehicle: saline) 116 % of control.

Consider `CC1Oc2cc3c(-c4c(O)cc(O)c5c(O)c6c(cc45)OC(C)C(C)C6=O)c(O)cc(O)c3c(O)c2C(=O)C1C` (stereo not given), for which the T/C (dose: 0.62 mg/kg/injection, schedule: Q01DX009 (ip), vehicle: suspension in saline) was 102 % of control; the T/C (dose: 1.25 mg/kg/injection, schedule: Q01DX009 (ip), vehicle: suspension in saline) is 109 % of control; the T/C (dose: 1.25 mg/kg/injection, schedule: Q04DX004 (ip), vehicle: suspension in saline) is 151 % of control; the T/C (dose: 1.8 mg/kg/injection, schedule: Q04DX004 (ip), vehicle: suspension in saline) was 97 % of control and 115 % of control; the T/C (dose: 3.0 mg/kg/injection, schedule: Q04DX004 (ip), vehicle: suspension in saline) is 107 % of control and 114 % of control; the T/C (dose: 8.33 mg/kg/injection, schedule: Q04DX004 (ip), vehicle: suspension in saline) is 123 % of control.

Consider `CC(=O)N1CCCN(C)/C1=N/[N+](=O)[O-]`, for which the T/C is 100 % of control under setting [9], 104 % of control under setting [11], 104 % of control under setting [13] and 100 % of control under setting [14].

`CC1OC(O[C@H]2/C=C/C=C/C=C/C=C/C=C/C=C/C=C/[C@H](C)[C@@H](O)[C@@H](C)[C@H](C)OC(=O)C[C@H](O)C[C@H](O)CC[C@@H](O)[C@H](O)C[C@H](O)C[C@]3(O)C[C@H](O)[C@@H](C(=O)O)[C@H](C2)O3)C(O)C(N)C1O` (stereo not given in full): the T/C reads like this: (dose: 3.12 mg/kg/injection, schedule: Q04DX004 (ip), vehicle: suspension in saline) 97 % of control; (dose: 6.25 mg/kg/injection, schedule: Q04DX004 (ip), vehicle: suspension in saline) 105 % of control; (dose: 12.5 mg/kg/injection, schedule: Q04DX004 (ip), vehicle: suspension in saline) 100 % of control and 101 % of control; (dose: 25.0 mg/kg/injection, schedule: Q04DX004 (ip), vehicle: suspension in saline) 100 % of control and 109 % of control; under setting [15], 98 % of control and 107 % of control.

`CCC1C(C#N)C(=O)NC(=O)C1C#N` (stereo not given): the T/C is 104 % of control under setting [5]; 106 % of control under setting [6]; 107 % of control under setting [7]; 104 % of control (dose: 400.0 mg/kg/injection, schedule: Q04DX004 (ip), vehicle: Klucel (hydroxypropylcellulose) (HPC)); 110 % of control (dose: 800.0 mg/kg/injection, schedule: Q04DX004 (ip), vehicle: Klucel (hydroxypropylcellulose) (HPC)).

Take `Nc1nc2c(ncn2C2CC3[O][Sn]([c]4ccccc4)([c]4ccccc4)[O]CC3O2)c(=O)[nH]1` (stereo not given): the T/C runs as follows: (dose: 25.0 mg/kg/injection, schedule: Q04DX004 (ip), vehicle: distilled water + Tween-80) 99 % of control; (dose: 50.0 mg/kg/injection, schedule: Q04DX004 (ip), vehicle: distilled water + Tween-80) 90 % of control; (dose: 100.0 mg/kg/injection, schedule: Q04DX004 (ip), vehicle: distilled water + Tween-80) 88 % of control; (dose: 200.0 mg/kg/injection, schedule: Q04DX004 (ip), vehicle: distilled water + Tween-80) 92 % of control.
